Test [1] deals with LPS-induced NO production in mouse microglia (BV2). The test can be described thus: LPS-induced NO production inhibition test, mouse microglia (BV2). It counts as cell-based. As to conditions: BV-2, BV2 cells, 20 ng/ml LPS, 24 hours, Griess reagent. As to the method:
(§1) Mouse monocytes (RAW) and mouse microglia (BV2) cells were cultured on a 96-well transparent plate (Nunc) in such a way that each of the wells contained 60,000 and 35,000 cells respectively. After 18 hours, when stabilized, the cells were treated with lipopolysaccharide (Sigma, USA, Cat No. L2630) in a morbid state derived from 20 ng/ml of Escherichia coli O111:B4 and 4 different concentrations (50 uM, 12.5 uM, 3.1 uM, and 0.8 uM) of the compounds synthesized according to Examples 1 to 55. Then, the cells were cultured for 24 hours, and a concentration of increased NO was measured. The NO concentration was determined by measuring absorption at a wavelength of 540 nm after a Griess reagent including 0.1% N-(1-naphthyl)ethylenediamine dihydrochloride, 1% sulfanilamide, and 2.5% phosphoric acid were added thereto.

The subject of test [2] is LPS-induced NO production in mouse monocytes (RAW). The test can be described thus: LPS-induced NO production inhibition test, mouse monocytes (RAW). It counts as cell-based. The conditions noted are these: Monocyte, RAW cells, 20 ng/ml LPS, 24 hours, Griess reagent. As to the method: as §1

The source of these data is patent US8822463B2, “Methylcyclohexane derivatives and uses thereof” (Sk Biopharmaceuticals Co., Ltd., priority 2010, dated 2014).

Molecules are shown by their SMILES. Structures can show the parent of a compound that is named as a salt.

`O=C(NC1CCC(COC(=O)N2CCCC2)CC1)OCc1cccnc1` (stereo not drawn) [Example 41, pyrrolidine-1-carboxylic acid 4-(pyridin-3-ylmethoxycarbonylamino)-cyclohexylmethyl ester]: the values for the half-inhibitory concentration (IC50) in test [1] and in test [2] were over 50 µM and 50 µM, respectively.

On to `O=C(OCC1CCC(OCc2ccccc2)CC1)N1CCCC1` (stereo not drawn) [Example 34, pyrrolidine-1-carboxylic acid 4-benzyloxy-cyclohexylmethyl ester], for which the IC50 was determined as 27.1 µM in test [1] and 24.9 µM in test [2].

As for `Cc1ncccc1COC(=O)NC1CCC(COC(=O)N2CCCC2)CC1` (stereo not drawn) [Example 48, pyrrolidine-1-carboxylic acid 4-(2-methyl-pyridin-3-ylmethoxycarbonylamino)-cyclohexylmethyl ester], the IC50 is 10.2 µM in test [1] and 13.5 µM in test [2].

`O=C(NCCc1ccccc1)OC1CCC(COC(=O)N2CCCC2)CC1` (stereo not drawn) [Example 1, pyrrolidine-1-carboxylic acid 4-phenethylcarbamoyloxy-cyclohexylmethyl ester]: the IC50 was 19.9 µM in test [1] and 27.9 µM in test [2].

As for `O=C(Cc1ccccn1)OC1CCC(COC(=O)N2CCCC2)CC1` (stereo not drawn) [Example 33, pyrrolidine-1-carboxylic acid 4-(2-pyridin-2-yl-acetoxy)-cyclohexylmethyl ester], the IC50 in test [1] and in test [2] was over 50 µM throughout.

For `Cc1cccc(COC(=O)NC2CCC(COC(=O)N3CCCC3)CC2)n1` (stereo not drawn) [Example 49, pyrrolidine-1-carboxylic acid 4-(6-methyl-pyridin-2-ylmethoxycarbonylamino)-cyclohexylmethyl ester], the IC50 stood at 10.2 µM in test [1] and 12 µM in test [2].

Consider `O=C(Nc1cccc[n+]1[O-])OC1CCC(COC(=O)N2CCCC2)CC1` (stereo not drawn) [Example 25, pyrrolidine-1-carboxylic acid 4-(1-oxy-pyridin-2-ylcarbamoyloxy)-cyclohexylmethyl ester], for which the half-inhibitory concentration (IC50) in test [1] stood at 15.5 µM; in test [2], 24.9 µM.

As to `O=C(NC1CCC(COC(=O)N2CCCC2)CC1)OCc1ccc(C(F)(F)F)nc1` (stereo not drawn) [Example 50, pyrrolidine-1-carboxylic acid 4-(6-trifluoromethyl-pyridin-3-ylmethoxycarbonylamino)-cyclohexylmethyl ester], the IC50 in test [1] amounted to 14.2 µM; in test [2], 5.7 µM.

On to `O=C(NCc1cc[n+]([O-])cc1)OC1CCC(COC(=O)N2CCCC2)CC1` (stereo not drawn) [Example 11, pyrrolidine-1-carboxylic acid 4-(1-oxy-pyridin-4-ylmethylcarbamoyloxy)-cyclohexylmethyl ester], for which the IC50 was over 50 µM in test [1] and 10.2 µM in test [2].

Take `CN(Cc1ccccn1)C(=O)OC1CCC(COC(=O)N2CCCC2)CC1` (stereo not drawn) [Example 10, pyrrolidine-1-carboxylic acid 4-(methyl-pyridin-2-ylmethyl-carbamoyloxy)-cyclohexylmethyl ester]: the figures for the IC50 in test [1] and in test [2] were 5.3 µM and 46.1 µM, respectively.

In the case of `O=C(NCCc1ccncc1)OC1CCC(COC(=O)N2CCCC2)CC1` (stereo not drawn) [Example 4, pyrrolidine-1-carboxylic acid 4-(2-pyridin-4-yl-ethylcarbamoyloxy)-cyclohexylmethyl ester], the half-maximal inhibitory concentration (IC50) in test [1] was found to be 32.9 µM; in test [2] it was 30.3 µM.

Regarding `O=C(NC1CCC(COC(=O)N2CCCC2)CC1)OCc1cc[n+]([O-])cc1` (stereo not drawn) [Example 53, pyrrolidine-1-carboxylic acid 4-(1-oxy-pyridin-4-ylmethoxycarbonylamino)-cyclohexylmethyl ester], the IC50 in test [1] is over 50 µM; in test [2], 33.9 µM.

As for `O=C(NCCc1ccccn1)OC1CCC(COC(=O)N2CCCC2)CC1` (stereo not drawn) [Example 2, pyrrolidine-1-carboxylic acid 4-(2-pyridin-2-yl-ethylcarbamoyloxy)-cyclohexylmethyl ester], the IC50 in test [1] was 40.1 µM; in test [2], over 50 µM.

Regarding `O=C(NCc1ccncc1)OC1CCC(COC(=O)N2CCCC2)CC1` (stereo not drawn) [Example 9, pyrrolidine-1-carboxylic acid 4-(pyridin-4-ylmethylcarbamoyloxy)-cyclohexylmethyl ester], the IC50 in test [1] and in test [2] was over 50 µM in each case.

In the case of `COc1ccc(CNC2CCC(COC(=O)N3CCCC3)CC2)cc1` (stereo not drawn) [Example 38, pyrrolidine-1-carboxylic acid 4-(4-methoxy-benzylamino)-cyclohexylmethyl ester HCl salt], the IC50 in test [1] was over 50 µM; in test [2], 35.8 µM.

`O=C(NC1CCC(COC(=O)N2CCCC2)CC1)OCc1ccc(Cl)nc1` (stereo not drawn) [Example 47, pyrrolidine-1-carboxylic acid 4-(6-chloro-pyridin-3-ylmethoxycarbonylamino)-cyclohexylmethyl ester]: the IC50 worked out at 21.1 µM in test [1] and 13.1 µM in test [2].

Turning to `O=C(NCc1ccc(C(F)(F)F)nc1)OC1CCC(COC(=O)N2CCCC2)CC1` (stereo not drawn) [Example 19, pyrrolidine-1-carboxylic acid 4-(6-trifluoromethyl-pyridin-3-ylmethylcarbamoyloxy)-cyclohexylmethyl ester], the values for the IC50 in test [1] and in test [2] were 13.8 µM and 11.1 µM, respectively.

For the molecule `O=C(OCC1CCC(OCc2ccccn2)CC1)N1CCCC1` (stereo not drawn) [Example 35, pyrrolidine-1-carboxylic acid 4-(pyridin-2-ylmethoxy)-cyclohexylmethyl ester], the IC50 in test [1] is 50 µM; in test [2] it was over 50 µM.

For `O=C(NC1CCC(COC(=O)N2CCCC2)CC1)OCc1cccnc1Cl` (stereo not drawn) [Example 44, pyrrolidine-1-carboxylic acid 4-(2-chloro-pyridin-3-ylmethoxycarbonylamino)-cyclohexylmethyl ester], the half-inhibitory concentration (IC50) was 16.8 µM in test [1] and 21.7 µM in test [2].

On to `O=C(NCc1ccccn1)OC1CCC(COC(=O)N2CCNCC2)CC1` (stereo not drawn) [Example 28, HCl salt], for which the IC50 in test [1] was 44.8 µM; in test [2] it was over 50 µM.

Regarding `O=C(NCc1ccc[n+]([O-])c1)OC1CCC(COC(=O)N2CCCC2)CC1` (stereo not drawn) [Example 12, pyrrolidine-1-carboxylic acid 4-(1-oxy-pyridin-3-ylmethylcarbamoyloxy)-cyclohexylmethyl ester], the concentration for half-maximal inhibition (IC50) in test [1] and in test [2] was over 50 µM each time.

Turning to `O=C(NCc1ccccn1)OC1CCC(COC(=O)N2CCOCC2)CC1` (stereo not drawn) [Example 27], the IC50 was over 50 µM in test [1] and 50 µM in test [2].

Turning to `O=C(NC1CCC(COC(=O)N2CCCC2)CC1)OCc1cccc[n+]1[O-]` (stereo not drawn) [Example 51, pyrrolidine-1-carboxylic acid 4-(1-oxy-pyridin-2-ylmethoxycarbonylamino)-cyclohexylmethyl ester], the results for the IC50 in test [1] and in test [2] were over 50 µM and 50 µM, respectively.

Consider `O=C(Nc1cc(Cl)nc(Cl)c1)OC1CCC(COC(=O)N2CCCC2)CC1` (stereo not drawn) [Example 24, pyrrolidine-1-carboxylic acid 4-(2,6-dichloro-pyridin-4-ylcarbamoyloxy)-cyclohexylmethyl ester], for which the IC50 in test [1] and in test [2] was over 50 µM throughout.

Regarding `CN1CCN(C(=O)OCC2CCC(OC(=O)NCc3ccccc3)CC2)CC1` (stereo not drawn) [Example 29, 4-methyl-piperazine-1-carboxylic acid 4-benzylcarbamoyloxy-cyclohexylmethyl ester], the IC50 was over 50 µM in test [1] and 46.1 µM in test [2].

For the molecule `O=C(NCCc1cccnc1)OC1CCC(COC(=O)N2CCCC2)CC1` (stereo not drawn) [Example 3, pyrrolidine-1-carboxylic acid 4-(2-pyridin-3-yl-ethylcarbamoyloxy)-cyclohexylmethyl ester], the IC50 was determined as 30.3 µM in test [1] and 22.3 µM in test [2].

As for `O=C(OC1CCC(COC(=O)N2CCCC2)CC1)c1ccncc1` (stereo not drawn) [Example 32, pyridine-4-carboxylic acid 4-(pyrrolidine-1-carbonyloxymethyl)-cyclohexyl ester], the IC50 is 34.8 µM in test [1] and 21.1 µM in test [2].

As to `O=C(OC1CCC(COC(=O)N2CCCC2)CC1)c1cccnc1` (stereo not drawn) [Example 31, pyridine-3-carboxylic acid 4-(pyrrolidine-1-carbonyloxymethyl)-cyclohexyl ester], the IC50 is 21.1 µM in test [1] and over 50 µM in test [2].

Take `Cc1cccc(NC(=O)OC2CCC(COC(=O)N3CCCC3)CC2)n1` (stereo not drawn) [Example 22, pyrrolidine-1-carboxylic acid 4-(6-methyl-pyridin-2-ylcarbamoyloxy)-cyclohexylmethyl ester]: the IC50 in test [1] came to 21.7 µM; in test [2], 35.8 µM.

As for `O=C(NC1CCC(COC(=O)N2CCCC2)CC1)OCc1cccc(Cl)n1` (stereo not drawn) [Example 46, pyrrolidine-1-carboxylic acid 4-(6-chloro-pyridin-2-ylmethoxycarbonylamino)-cyclohexylmethyl ester], the IC50 turned out to be 26.3 µM in test [1] and 32 µM in test [2].

For the molecule `O=C(OC1CCC(COC(=O)N2CCCC2)CC1)c1ccccn1` (stereo not drawn) [Example 30, pyridine-2-carboxylic acid 4-(pyrrolidine-1-carbonyloxymethyl)-cyclohexyl ester], the IC50 in test [1] and in test [2] was over 50 µM throughout.

On to `O=C(NC1CCC(COC(=O)N2CCCC2)CC1)OCc1cc(Cl)nc(Cl)c1` (stereo not drawn) [Example 45, pyrrolidine-1-carboxylic acid 4-(2,6-dichloro-pyridin-4-ylmethoxycarbonylamino)-cyclohexylmethyl ester], for which the IC50 in test [1] was found to be 7.5 µM; in test [2], 9.9 µM.

Turning to `O=C(NC1CCC(COC(=O)N2CCCC2)CC1)OCc1ccc[n+]([O-])c1` (stereo not drawn) [Example 52, pyrrolidine-1-carboxylic acid 4-(1-oxy-pyridin-3-ylmethoxycarbonylamino)-cyclohexylmethyl ester], the IC50 in test [1] was over 50 µM; in test [2], 22.3 µM.
